Results on four compounds are retold here after publication PMC6567565, “Modulation of neurological pathways by Salvia officinalis and its dependence on manufacturing process and plant parts used” (BMC Complementary and Alternative Medicine, 2019).

One may read the IC50 as the concentration that gives 50% inhibition. What is called Kd is the equilibrium constant for the complex coming apart.

Structures can show the parent of a compound that is named as a salt.

For assay [1], the target named is serotonin 5-HT2C receptor. The experiment in a line: [3H]-mesulergine binding in native female hypothalami preparation. Further details: species or system human. Conditions: reference compound. Here is the method:
Human frozen hypothalami were from a healthy person and a healthy person (Tissue Solutions Ltd., Glasgow, UK). The tissue was minced in 20 ml 10 mM HEPES pH 7.4, 1 mM EDTA on ice with a disperger (20 s at 28 Trpm) and centrifuged for 15 min at 31,600×g at 4 °C. The pellet was homogenized (10 strokes with a glass-teflon homogenizer, 2000 rounds per minute) at 4 °C and again centrifuged. The latter procedure was repeated once and the pellet finally resupended in 50 mM HEPES pH 7.4, 4 mM MgCl2, and 1 mM EDTA; frozen in liquid nitrogen; and stored at − 80 °C until usage.
(§1) The serotonin 5-HT2C(e) receptor binding assay was performed according to the data sheet provided by the supplier of the receptor preparation, with modifications. The receptor preparation was incubated for 120 min at 37 °C in 50 mM Tris-HCl (pH 7.4), 0.1% ascorbic acid and 10 μM pargyline with 0.5 nM [N^6-methyl-^3H]-mesulergine in the dark.
In membranes from human native female hypothalami, no specific binding of the radioligand for the 5-HT1A, [^3H]-8-OH-DPAT, could be observed, indicating the absence of the serotonin 5-HT1A receptor at least in the investigated preparation.

The target in assay [2] is human serotonin 5-HT2C(e) receptors. Kind of assay: serotonin 5-HT2C(e) receptor binding assay ([3H]-mesulergine). To be noted: reference compound. Here is the method:
as §1
All assays were terminated by transfer of the samples onto filter plates (PerkinElmer or Whatman), presoaked in assaybuffer (GABAA, GABAB, alpha2A and muscarinic M3), treated with 0.5% BSA (μ-opioid), presoaked with 0.5% polyethyleneimine (5-HT2B, 5-HT2C(e)), or presoaked with 0.1% polyethyleneimine (5-HT1A, 5-HTT). Filters were washed four times with 200 μl of ice-cold 50 mM Tris-HCl pH 7.4 (GABAA, GABAB, Alpha2A, 5-HT1A, 5-HT2B 5-HT2C(e), μ-opioid, and muscarinic M3) or 50 mM Tris-HCl pH 7.4/0.5 M NaCl (5-HTT), and filter-bound radioactivity was determined by a microplate reader (Microbeta, Wallac, Finnland). […]
The IC50 value (concentration causing half-maximal inhibition of specific binding) was determined by non-linear regression analysis of the competition curves using the “sigmoidal dose-response” algorithm (GraphPad Prism, San Diego, USA). […]

Assay [3] addresses human serotonin transporters. Further details: method as in ref 33 (Tatsumi et al.). Conditions: [3H]-imipramine binding; ref 33 (Tatsumi et al.); cited from earlier work.
The subject of the next assay is AChE. Further details: method as in ref 31 (Kishibayashi et al.). Conditions: ref 31 (Kishibayashi et al.); cited from earlier work.
Assay [4] has as its target benzodiazepine site of the GABAA receptor. The experiment in a line: GABAA-benzodiazepine site binding assay ([3H]-Ro-15-1788). Conditions: reference compound.
Experimental: The GABAA-benzodiazepine site binding assay was performed as described by Mehta and Shank [28], with minor modifications. Membranes were incubated for 30 min at 22 °C in 50 mM Tris-HCl (pH 7.4) and 100 mM NaCl with 1 nM [^3H]-Ro-15-1788. Non-specific binding was determined with 10 μM diazepam.
From every data point non-specific binding was subtracted and data normalized (100% specific binding represents the specific binding of the radioligand to the binding site of the receptor in the absence of any effector).

As for `O=C1Nc2cc(Cl)c(Cl)cc2N2CCNCC12` (centres unmarked) [WAY 161503, WAY 161503 hydrochloride], the IC50 was 347 nM in assay [1] and 163 nM in assay [2].
For `CN(C)CCCN1c2ccccc2CCc2ccccc21` [imipramine, Imipramine hydrochloride], the Kd in assay [3] is 1.4 nM.
Regarding `CN(C)C(=O)Oc1cccc([N+](C)(C)C)c1` [neostigmine], the IC50 in the assay with AChE is 36 nM.
In assay [4], `CN1C(=O)CN=C(c2ccccc2)c2cc(Cl)ccc21` [diazepam] yielded an IC50 of 39 nM.
